Measurements published in ChEMBL document CHEMBL1201862, “PubChem BioAssay data set” (2004).
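Dose response: 5 concentrations. Exposure: 48 h. Format: 96-well plates. Endpoint: linear interpolation; highest concentration if not reached. At the GI50, growth is halved.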 Active and inactive are the calls of the source. Rule as the data show it: active = GI50 up to about 1.1 µM and inactive = higher.

How the values were obtained:
Assay in all cases: DTP human tumour cell line panel, 48 h
[1] = test system: HCT-116
[2] = test system: SF-295
[3] = test system: Malme-3M
[4] = test system: SF-268
[5] = test system: UACC-62
[6] = test system: OVCAR-8
[7] = test system: KM12
[8] = test system: NCI/ADR-RES
[9] = test system: M14
[10] = test system: BT-549
[11] = test system: IGROV-1
[12] = test system: HCT-15
[13] = test system: 786-0
[14] = test system: ACHN
[15] = test system: NCI-H460
[16] = test system: NCI-H23
[17] = test system: SNB-75
[18] = test system: T47D
[19] = test system: TK-10
[20] = test system: SR

Row | Compound | GI50 [1] | GI50 [2] | GI50 [3] | GI50 [4] | GI50 [5] | GI50 [6] | GI50 [7] | GI50 [8] | GI50 [9] | GI50 [10] | GI50 [11] | GI50 [12] [µM] | GI50 [13] | GI50 [14] | GI50 [15] | GI50 [16] | GI50 [17] | GI50 [18] | GI50 [19] | GI50 [20]
1 | Cc1ccc(-n2c(Cn3nnc(-c4cccnc4)n3)nn(C3OC(COC(=O)c4ccccc4)C(OC(=O)c4ccccc4)C3OC(=O)c3ccccc3)c2=S)cc1 (stereo not given) | > 100 µM (inactive) | > 100 µM (inactive) | 38.4 µM (inactive) | > 100 µM (inactive) | > 100 µM (inactive) | > 100 µM (inactive) | > 100 µM (inactive) | > 100 µM (inactive) | > 100 µM (inactive) | > 100 µM (inactive) | > 100 µM (inactive) | > 100 | > 100 µM (inactive) | > 100 µM (inactive) | > 100 µM (inactive) | > 100 µM (inactive) | 52.6 µM (inactive) | > 100 µM (inactive) | > 100 µM (inactive) | 
2 | COc1ccc2cc(CNCCCCCCNC(=O)Nc3cccc4ccccc34)ccc2c1 | > 100 µM (inactive) | > 100 µM (inactive) | > 100 µM (inactive) | > 100 µM (inactive) | > 100 µM (inactive) | > 100 µM (inactive) | > 100 µM (inactive) |  | > 100 µM (inactive) | > 100 µM (inactive) | > 100 µM (inactive) | > 100 | > 100 µM (inactive) | > 100 µM (inactive) | > 100 µM (inactive) | > 100 µM (inactive) | > 100 µM (inactive) | > 100 µM (inactive) | > 100 µM (inactive) | > 100 µM (inactive)
3 | O=C(/C(=N\Nc1ccc([N+](=O)[O-])cc1[N+](=O)[O-])NC12CC3CC(CC(C3)C1)C2)C(Br)C(=O)c1ccccc1 (stereo not given) | 3.05 µM (inactive) | 3.99 µM (inactive) | 3.13 µM (inactive) | 5.05 µM (inactive) | 3.38 µM (inactive) | 3.48 µM (inactive) | 2.78 µM (inactive) | 3.23 µM (inactive) | 2.86 µM (inactive) | 4.44 µM (inactive) | 6.67 µM (inactive) | 4.99 | 3.21 µM (inactive) | 3.18 µM (inactive) | 3.61 µM (inactive) | 3.33 µM (inactive) | 2.48 µM (inactive) | 2.69 µM (inactive) | 5.66 µM (inactive) | 
4 | O=c1[nH]c(=O)c2ncn(-c3ccc([N+](=O)[O-])cn3)c2[nH]1 | > 100 µM (inactive) | > 100 µM (inactive) | 2.79 µM (inactive) | > 100 µM (inactive) | 74.1 µM (inactive) | > 100 µM (inactive) | > 100 µM (inactive) | > 100 µM (inactive) | > 100 µM (inactive) | > 100 µM (inactive) |  | > 100 | > 100 µM (inactive) | > 100 µM (inactive) | > 100 µM (inactive) | > 100 µM (inactive) | > 100 µM (inactive) | > 100 µM (inactive) | > 100 µM (inactive) | 
5 | N#CC1=C(N)Nc2nc3ccccc3n2C1c1ccccc1 (stereo not given) | 29.8 µM (inactive) | 27.7 µM (inactive) |  | 46.7 µM (inactive) | 56.6 µM (inactive) | 55.1 µM (inactive) | 53.7 µM (inactive) | > 100 µM (inactive) | > 100 µM (inactive) | 23.8 µM (inactive) | 51.5 µM (inactive) | 44.7 | 34 µM (inactive) | 23.3 µM (inactive) | 45.7 µM (inactive) | > 100 µM (inactive) |  | 20.2 µM (inactive) |  | 83.6 µM (inactive)
6 | O=C(Cn1c2ccc(Br)cc2c2nc3ccccc3nc21)NNC(=S)NC1CCCCC1 | 13.9 µM (inactive) | 13.1 µM (inactive) | 19.7 µM (inactive) | 16.7 µM (inactive) | 15.6 µM (inactive) | 14.7 µM (inactive) | 18.7 µM (inactive) | 17.3 µM (inactive) | 11.9 µM (inactive) | 19.9 µM (inactive) | 10.7 µM (inactive) | 12 | 15.5 µM (inactive) | 16 µM (inactive) | 12.4 µM (inactive) | 14.4 µM (inactive) | 13.8 µM (inactive) | 17.3 µM (inactive) | 15.4 µM (inactive) | 
7 | COc1cc(Nc2nnc3n2S(=O)(=O)c2cc(C)c(Cl)cc2S3)cc(OC)c1 | 14 µM (inactive) | 21.5 µM (inactive) | 2.17 µM (inactive) | 11.5 µM (inactive) | 18.1 µM (inactive) | 17.5 µM (inactive) | 23.4 µM (inactive) | 15.6 µM (inactive) | 59.3 µM (inactive) | 5.77 µM (inactive) | 1.87 µM (inactive) | 17.7 | 4.22 µM (inactive) | 5.21 µM (inactive) | 23.8 µM (inactive) | 6.25 µM (inactive) |  | 8.22 µM (inactive) | 31.4 µM (inactive) | 
8 | O=C(c1ccc(Cl)cc1)N1N=C(c2ccc(Cl)cc2)CC1(O)c1cc(F)c(Cl)cc1Cl (stereo not given) | 5.66 µM (inactive) | 20.6 µM (inactive) | 30.6 µM (inactive) | 47.4 µM (inactive) | 21.5 µM (inactive) | 21.3 µM (inactive) | 6.97 µM (inactive) | 18.4 µM (inactive) | 28.7 µM (inactive) | 62.2 µM (inactive) | 17.9 µM (inactive) | 15.5 | 18.9 µM (inactive) | 21.3 µM (inactive) | 21.7 µM (inactive) | 12.2 µM (inactive) | 10 µM (inactive) | 9.95 µM (inactive) | 52.7 µM (inactive) | 
9 | CC(=O)C1=C(C)N2C(=NC3=C(CCc4ccccc43)C2c2ccc(F)cc2)S1 (stereo not given) | > 100 µM (inactive) | > 100 µM (inactive) |  | 61 µM (inactive) | 78.2 µM (inactive) | 62.5 µM (inactive) | > 100 µM (inactive) | 37.3 µM (inactive) | > 100 µM (inactive) | 93.5 µM (inactive) | 27.7 µM (inactive) |  | > 100 µM (inactive) | 77.6 µM (inactive) |  | > 100 µM (inactive) | 25.6 µM (inactive) | 63.5 µM (inactive) |  | 
10 | O=C(O)C(F)(OC(F)(F)C(F)(F)C(F)(F)F)C(F)(F)F (stereo not given) | > 100 µM (inactive) | > 100 µM (inactive) | > 100 µM (inactive) | > 100 µM (inactive) | > 100 µM (inactive) | > 100 µM (inactive) | > 100 µM (inactive) | > 100 µM (inactive) | > 100 µM (inactive) | > 100 µM (inactive) | > 100 µM (inactive) | > 100 | > 100 µM (inactive) | > 100 µM (inactive) | > 100 µM (inactive) | > 100 µM (inactive) | > 100 µM (inactive) | > 100 µM (inactive) | > 100 µM (inactive) | 
11 | O=C1CSC(c2c[nH]c3ccccc23)N1c1cccc(Cl)c1 (stereo not given) | 29.5 µM (inactive) | 44.1 µM (inactive) |  | 89.5 µM (inactive) | 45.8 µM (inactive) | > 100 µM (inactive) | 50.1 µM (inactive) | 36.1 µM (inactive) | 49.1 µM (inactive) | 43.9 µM (inactive) | 27.9 µM (inactive) | 40.4 | 25.5 µM (inactive) | 24.2 µM (inactive) | 37.6 µM (inactive) | 54 µM (inactive) | 46.7 µM (inactive) | > 100 µM (inactive) | 89.3 µM (inactive) | 
